Laboratory results reported in PMC9951290, “Comprehensive Structure–Activity Relationship Studies of Cepafungin Enabled by Biocatalytic C–H Oxidations” (ACS Central Science, 2023).
Where two headings read alike, the source gives them in different places.

What was measured:
[1] = Macrolactamisation of unprotected diamino acid: Lys epsilon-NH2 to vinylogous amino acid CO2H, DMTMMT (BF4 salt, 1.5 equiv), DIPEA (4 equiv); free alpha-NH2 and OH present; conditions: the molecule shown is the open-chain precursor, 12-membered ring, DMF, 1.0 mM, 25.0 °C
RPMI 8226 cells [2] = assay: Cytotoxicity measurement (WST-1), RPMI 8226; format: cell-based, human; conditions: for EC50: Homo sapiens, RPMI 8226, 48 hours, WST-1, n = 3, read-out: Cytotoxicity EC50 (cell viability); for Potency in cytotoxicity screening relative to natural product 1: RPMI 8226, 30 and 100 nM compound concentration, n = 3, Figure 4B
Experimental: (§1) Cellular assays were performed on human multiple myeloma RPMI 8226 cells (Figure 4). First, relative inhibition of proteasome subunits β5 and β2 for all analogues and the natural product was measured at 30 nM compound concentration. Following incubation of the compounds in cell culture for 6 h, cells were lysed, and fluorogenic subunit-specific peptide substrates Suc-LLVY-AMC (β5) or Ac-RLR-AMC (β2) were incubated with the lysates; fluorescence readings provided relative proteasome activity levels in comparison with DMSO (Figure 4A). Next, cytotoxicity screening was performed at 30 and 100 nM concentrations for sufficient coverage of dynamic range (Figure 4B). […] Therefore, the improved cytotoxicity of phenyl cepafungin 50 likely results from a more pronounced loss of β5 function in RPMI 8226 cells. This drastic increase in proteasome inhibition may be due to π-stacking of the lipid tail phenyl ring with the β6 subunit residues Tyr106 and/or Tyr5. The β2 subunit-bound natural product has residues Tyr102 and Phe103 on the adjacent β3 subunit oriented further away from the terminal lipid methyl groups, and presumably would not facilitate π-stacking to the extent possible at the adjacent β6 subunit (see Figure 3 and Figure S4). […] These combined modifications were made in hopes that the effects of both substitutions would be additive. […] The presence of a Thr residue next to the cepafungin macrocycle appears to be favored over the ethyl side chain of desoxy-Thr analogue 44 as indicated by cytotoxicity and hydrogen-bonding seen in the cepafungin-bound crystal structure (Figures 3 and 4B).
AMC (β5) or Ac-RLR-AMC (β2). […]
Cytotoxicity Measurements
in DMSO) or DMSO and cultured for 48 hours. Toxicity was determined using the WST-1 assay
(Roche) according to the protocol of the manufacturer. (n = 3)
Figure S1. […]

RPMI 8226 cells [3] = assay: Global proteomics analysis via LC-MS/MS of RPMI 8226 cells treated with BTZ or 50 (Table S5); format: cell-based, human
Experimental: Finally, we evaluated the changes in global protein expression following treatment of RPMI 8226 cells with either BTZ or 50. […] Following treatment, cells were collected via centrifugation, and protein lysates were digested with trypsin and analyzed using LC-MS/MS.
Global proteomics analysis via LC-MS/MS.
RPMI 8226 cells were seeded in a 6-well plate (1,000,000 cells/well) in cell culture media supplemented with DMSO, BTZ (2.5 nM, 1000x stock in DMSO), or 50 (3 nM, 1000x stock in DMSO) for 14 h. Cells were centrifuged (3,000 x g 5 min 4°C) and washed twice with PBS. Cell pellets were resuspended in PBS and protein concentration was determined using the Bradford assay (Bio-Rad). Urea (9 M in 100 mM NH4HCO3 pH 8) was added to a final concentration of 6 M to 30 µg lysate (15 µL PBS). […] Peptides were resuspended in water with 0.1 % FA and analyzed using EASY-nLC 1200 nano-UHPLC coupled to Q Exactive HF-X Quadrupole-Orbitrap mass spectrometer (Thermo Scientific). […]
The MS data were analyzed with MaxQuant (V2.0.3.0) and searched against the human proteome (Uniprot) and a common list of contaminants (included in MaxQuant). […] The minimum peptide length was set to 6 amino acids and peptide re-quantification and “match between runs” was enabled. […]

RPMI 8226 cells [4] = assay: Cytotoxicity measurement (WST-1), RPMI 8226; format: cell-based; conditions: Homo sapiens, 24 h; RPMI 8226, used as treatment concentration for proteomics
U266 = assay: Cytotoxicity measurement (WST-1), U266; conditions: Homo sapiens, U-266, 48 h, read-out: Cytotoxicity EC50
Experimental: (§2) Cells of the indicated cell line origin were seeded in a 96-well plate (20,000 cells/well) in
(§3) cell culture media supplemented with indicated compounds at given concentrations (1,000x stock
(§4) in DMSO) or DMSO and cultured for 48 hours. Toxicity was determined using the WST-1 assay (Roche) according to the protocol of the manufacturer. (n = 3)

Mino [5] = conditions: Cell line: Mino; Figure 2; cited from earlier work
MM.1S = conditions: Cell line: MM.1S; Figure 2; cited from earlier work
H929 = assay: Cytotoxicity measurement (WST-1), H929; conditions: Homo sapiens, NCI-H929, 48 h, read-out: Cytotoxicity EC50
Experimental: as §2, §3, §4

HBL2 = assay: Cytotoxicity measurement (WST-1), HBL2; conditions: Homo sapiens, HBL2, 48 h, read-out: Cytotoxicity EC50
Experimental: as §2, §3, §4

RPMI 8226 cells [6] = conditions: ∼3700 proteins quantified, 19 in common; cited from earlier work
JeKo-1 = assay: Cytotoxicity measurement (WST-1), JeKo-1; conditions: Homo sapiens, JeKo-1, 48 h, read-out: Cytotoxicity EC50
Experimental: as §2, §3, §4

MM.1S BtzR = conditions: Cell line: MM.1S BtzR; Figure 2; cited from earlier work
Mino [7] = assay: Cytotoxicity measurement (WST-1), Mino; conditions: Homo sapiens, 48 h, read-out: Cytotoxicity EC50
Experimental: as §2, §3, §4

Mino BtzR = conditions: Cell line: Mino BtzR; Figure 2; cited from earlier work
proteasome subunit β5 [8] = molecular target: T1, proteasome subunit β5 (Homo sapiens, UniProt P28074); conditions: in situ in RPMI 8226 cells; preliminary analogue series, Figure 2; cited from earlier work
T1 construct: Following incubation of the compounds in cell culture for 6 h, cells were lysed; endogenous in cells; host or cells: RPMI 8226 (human multiple myeloma)

proteasome subunit β5 [9] = molecular target: T1, proteasome subunit β5; assay: In situ β5 proteasome activity assay (Suc-LLVY-AMC) in RPMI 8226 cells; format: cell-based
Excerpt: A preliminary series of analogues, including the natural product glidobactin A (2), were synthesized by largely the same route (Scheme 2B, Figure 2).[36] Desoxycepafungin (38) was synthesized from Boc-Lys(Boc)-OH by peptide couplings/macrocyclization to assess the role of the macrocycle hydroxylation in 1 toward proteasome inhibition. The saturated cepafungin analogue 39 was designed to address the possible role of rigidity in the tail fragment induced by the diene seen in many natural cepafungins and glidobactins. An analogue bearing unsaturation at its macrocyclic lysine was envisioned to provide a head-to-head comparison between the cepafungin and syringolin macrocyclic core. […] Proteasome subunit β5 IC50 values were determined in situ in RPMI 8226 cells. In close agreement with prior measurement of β5 IC50 for natural 1 and 2 in purified yeast proteasome,[12] in our hands the additional branching methyl in 1 indeed leads to ca. 5-fold improved IC50 compared to 2 in RPMI 8226 cells. […] Likewise, saturation of the fatty acid fragment in 39 causes ca. 14-fold decrease in β5 inhibition. This preliminary series of analogues highlighted that the macrocyclic hydroxylation, fatty acid unsaturation, and terminal lipid functionality are critical for potent proteasome inhibitory activity.
as §1, with “and 4B). […]” for “and 4B).”
Mammalian cell culture and lysate preparation
Mammalian cells were maintained in RPMI-1640 media. All media were supplemented with 10% fetal bovine serum (FBS, Life Technologies Cat# 10437028), non-essential amino acids (Sigma-Aldrich Cat# M7145) and penicillin/streptomycin (Sigma-Aldrich Cat# P4333). Cells were grown at 37 °C under 5% CO2 atmosphere. […] Cells were lysed by needle sonication to obtain cell lysates and protein concentration was determined using the […]
fluorescence was read at A360ex/A460em. […]

With `CC(C)[C@@H](/C=C/C(=O)O)NC(=O)[C@@H](N)C[C@@H](O)CCN` as the compound, how does the ring closure, yield by NMR ([1]; 36.0 h) read?
The ring closure, yield by NMR was 47%.

Which ring closure, yield by NMR ([1]; 36.0 h) does the source give for `C[C@@H](/C=C/C(=O)O)NC(=O)[C@@H](N)CC(=O)CCN` here?
Its ring closure, yield by NMR is 51%.

With `C[C@@H](/C=C/C(=O)O)NC(=O)[C@@H](N)C[C@@H](O)CCN` as the compound, how does the ring closure, yield by NMR [1] read?
The ring closure, yield by NMR was 63%.

Which ring closure, yield by NMR ([1]; 36.0 h) does the source give for `C[C@@H](/C=C/C(=O)O)NC(=O)[C@@H](N)C[C@H](O)CCN` here?
Its ring closure, yield by NMR is 59%.

For `C[C@@H](/C=C/C(=O)O)NC(=O)[C@@H](N)[C@@H](O)CCCN`, which ring closure, yield by NMR ([1]; 36.0 h) is on record?
The ring closure, yield by NMR was 47%.

With `CC(C)[C@H]1/C=C/C(=O)NCC[C@H](O)C[C@H](NC(=O)[C@@H](NC(=O)/C=C/C=C/CCCCCc2ccccc2)[C@@H](C)O)C(=O)N1` [S39] as the compound, how does the EC50 (RPMI 8226 cells [2]) read?
Its EC50 is 4.5 nM.

For `CC(C)C[C@H](NC(=O)[C@H](Cc1ccccc1)NC(=O)c1cnccn1)B(O)O` [bortezomib], which “overlap of upregulated proteins commonly affected by BTZ and 50” value (RPMI 8226 cells [3]; 17 common proteins) is on record?
The value was 59%.

And the “number of proteins with statistically significant increase in expression” value (RPMI 8226 cells [3]; RPMI 8226, 14 h, 2.5 nM BTZ or 3 nM 50 vs DMSO, out of 4080 quantified, FDR 5%, S0 0.1)?
Its value is 29 proteins.

What about the EC50 (RPMI 8226 cells [4]) of the same compound?
Its EC50 is 2.5 nM.

And the EC50 (U266)?
Its EC50 is 3.1 ± 0.1 nM.

And the EC50 (Mino [5])?
The EC50 was 10 ± 0.4 nM.

What about the EC50 (MM.1S) of the same compound?
The EC50 was 2.3 ± 0.03 nM.

What about the EC50 (H929) of the same compound?
The EC50 was 1.5 ± 0.2 nM.

What about the EC50 (HBL2) of the same compound?
Its EC50 is 2.5 ± 0.4 nM.

And the “number of proteins upregulated compared to DMSO control” value (RPMI 8226 cells [6])?
Its value is 25 proteins.

And the EC50 (JeKo-1)?
The EC50 was 7 ± 0.5 nM.

What about the EC50 (RPMI 8226 cells [2]) of the same compound?
Its EC50 is 2.2 ± 0.1 nM.

What about the EC50 (MM.1S BtzR) of the same compound?
The EC50 was 28 ± 0.6 nM.

What about the EC50 (Mino [7]) of the same compound?
The EC50 was 7.4 ± 0.3 nM.

And the EC50 (Mino BtzR)?
Its EC50 is 23 ± 1.1 nM.

Which IC50 (proteasome subunit β5 [8]) does the source give for `CCCCCCC/C=C/C=C/C(=O)N[C@H](C(=O)N[C@H]1C[C@@H](O)CCNC(=O)/C=C/[C@H](C)NC1=O)[C@@H](C)O` [compound 2, glidobactin A] here?
Its IC50 is 77 ± 5 nM.

Which EC50 (Mino [5]) does the source give for `CCCCCCCCCCCCNC(=O)N[C@H](C(=O)N[C@H]1/C=C/CCNC(=O)/C=C/[C@H](C)NC1=O)C(C)C` [compound 37, TIR-199] here?
Its EC50 is 64 ± 2.1 nM.

What about the EC50 (MM.1S) of the same compound?
The EC50 was 48 ± 8.7 nM.

What about the EC50 (MM.1S BtzR) of the same compound?
The EC50 was 81 ± 5.8 nM.

What about the EC50 (Mino BtzR) of the same compound?
The EC50 was 130 ± 2 nM.

With `CC(C)CCCCC/C=C/C=C/C(=O)N[C@H](C(=O)N[C@H]1CCCCNC(=O)/C=C/[C@H](C)NC1=O)[C@@H](C)O` [compound 38, Desoxycepafungin] as the compound, how does the IC50 (proteasome subunit β5 [8]) read?
The IC50 was 184 ± 29 nM.

What about the “fold higher IC50 than 1” value (proteasome subunit β5 [9]; β5, RPMI 8226 cells) of the same compound?
The value was “ca. 11 fold”.

For `CC(C)CCCCCCCCCC(=O)NC(C(=O)NC1CC(O)CCNC(=O)C=CC(C)NC1=O)C(C)O` (stereo not drawn) [compound 39], which IC50 (proteasome subunit β5 [8]) is on record?
Its IC50 is 219 ± 11 nM.

What about the “fold decrease in β5 inhibition on saturation of the fatty acid fragment” value (proteasome subunit β5 [9]; 39 versus 1, RPMI 8226 cells) of the same compound?
The value was “ca. 14 fold”.

For `CC(C)CCCCC/C=C/C=C/C(=O)N[C@H](C(=O)N[C@H]1C[C@H](O)CCNC(=O)/C=C/[C@H](C)NC1=O)[C@@H](C)O` [compound 40, epi-4-OH cepafungin], which “Potency in cytotoxicity screening relative to natural product 1” value (RPMI 8226 cells [2]) is on record?
Its value is “nearly inactive at both concentrations”.

Which “Potency in cytotoxicity screening relative to natural product 1” value (RPMI 8226 cells [2]) does the source give for `CC(C)CCCCC/C=C/C=C/C(=O)N[C@H](C(=O)N[C@@H]1C(=O)N[C@@H](C)/C=C/C(=O)NCCC[C@@H]1O)[C@@H](C)O` [compound 41, 3-OH cepafungin] here?
Its value is “nearly inactive at both concentrations”.

Which “Potency in cytotoxicity screening relative to natural product 1” value (RPMI 8226 cells [2]) does the source give for `CC(C)CCCCC/C=C/C=C/C(=O)N[C@H](C(=O)N[C@H]1CC(=O)CCNC(=O)/C=C/[C@H](C)NC1=O)[C@@H](C)O` [compound 42, keto cepafungin] here?
Its value is “potency approaching that of the natural product”.

Which “Potency in cytotoxicity screening relative to natural product 1” value (RPMI 8226 cells [2]) does the source give for `CC(C)CCCCC/C=C/C=C/C(=O)N[C@H](C(=O)N[C@H]1C[C@@H](O)CCNC(=O)/C=C/[C@H](C(C)C)NC1=O)[C@@H](C)O` [compound 43, valinyl cepafungin] here?
Its value is “more potent than the parent natural product 1”.
